Test results from patent EP2476670A1, “Stable solid salts of ambrisentan” (Zentiva, K.S., priority 2011, dated 2012).
Structures can show the parent of a compound that is named as a salt. Where two headings read alike, the source gives them in different places.

Assays:
[1] = Solubility of ambrisentan solid forms in water at 25 °C; type: physicochemical; details: approximate values
Description: Solubility of all the salts are considerably higher compared to solubility of ambrisentan in the salt free form. Table. 1 Solubility of ambrisentan solid forms in water at 25 °C

[2] = pKa of the ionisable groups of ambrisentan; type: physicochemical

| Solubility [1] | Solubility ([1]; sodium salt) | Compound | other results |
| --- | --- | --- | --- |
| – | >5000 µg/mL | COC(c1ccccc1)(c1ccccc1)[C@H](Oc1nc(C)cc(C)n1)C(=O)O [Ambrisentan sodium salt (crystalline), ambrisentan sodium salt] | – |
| >6000 µg/mL | – | COC(c1ccccc1)(c1ccccc1)[C@H](Oc1nc(C)cc(C)n1)C(=O)O [Ambrisentan tert-butylammonium salt, ambrisentan tert-butylammonium salt] | – |

The next lines start with the compound.

| Compound | Solubility [1] | Solubility ([1]; sodium salt) | other results |
| --- | --- | --- | --- |
| COC(c1ccccc1)(c1ccccc1)[C@H](Oc1nc(C)cc(C)n1)C(=O)O [Ambrisentan (Form R), (S)-2-(4,6-dimethylpyrimidin-2-yloxy)-3-methoxy-3,3-diphenylpropanoic acid] | ∼ 0.05 mg/ml | – | pKa ([2]; read-out: pKa of nitrogen in pyrimidine ring): 2.98 ± 0.3; pKa ([2]; read-out: pKa of the carboxylic group): 0.93 ± 0.1 |
| COC(c1ccccc1)(c1ccccc1)[C@H](Oc1nc(C)cc(C)n1)C(=O)O [Ambrisentan phosphate salt, ambrisentan phosphate salt] | – | – | Solubility ([1]; phosphate salt): ∼ 0.1 mg/ml |
| COC(c1ccccc1)(c1ccccc1)[C@H](Oc1nc(C)cc(C)n1)C(=O)O [Ambrisentan sodium salt (amorphous), ambrisentan sodium salt] | – | >10000 µg/mL | – |
